Data: patent publication US20250009819A1, “NOVEL PROBIOTICS AND USE THEREOF” (PBLBIOLAB CO., LTD., priority 2021, published 2025)

Columns and labels:
Type in all cases: in vivo, C57BL/6 male mice
[1] = tested on: healthy animal; assay: Healthy animal: spleen parameters; settings: healthy mice, 1×10^9 CFU/mouse orally once a day for 5 days; for Foxp3 (fold change) / Tbet (fold change) / Tbet/Foxp3: spleen qPCR; for IFN-γ/IL-10 / IL-10 / Interferon (IFN)-γ / NK cell cytoxicity (%) / Phagocytosis (%) / TNF-a/IL-10 / TNF-α: spleen
Protocol: (§1) Hippocampus, colon, and spleen tissues were homogenized by adding 1 ml of RIPA buffer (Gibco) containing protease inhibitor cocktail and centrifuged at 4° C., 13000 rpm for 15 min to obtain supernatant. Indicators of this supernatant were measured using an ELISA kit (Ebioscience).
(§2) mRNA was isolated from spleen tissue using the RNA Isolation Kit: RNeasy Mini Kit (QIAGEN), converted to cDNA, and qPCR was performed to measure the expression rates of Tbet, Foxp3, and glyceraldehyde 3-phosphate dehydrogenase (GAPDH). The reaction product was first treated at 95° C. for 30 seconds, followed by 38 cycles of 5 seconds at 95° C. and 30 seconds at 72° C. for analysis.
C57BL/6 male mice (5 weeks old, 19-21 g) were divided (6 mice in each group) and acclimatized to the laboratory for 1 week. The mice were orally administered once a day for 5 days with lactic acid bacteria as a test sample suspended in physiological saline solution at a concentration of 1×10^9 CFU per mouse (NK210 alone (LR): 1×10^9 CFU/mouse, NK219 alone (BL): 1×10^9 CFU/mouse, combined (210+219): 210, 8×10^8 CFU/mouse and 219, 2×10^8 CFU/mouse). […] The day following the conclusion of sample administration, the experimental animals were sacrificed, and samples from the brain hippocampus, colon, and spleen were collected. In the Hippocampus, inflammatory indicators, such as IFN-γ, TNF-α, and IL-10, were measured using ELISA. In the colon, intestinal length and inflammatory indicators, such as IFN-γ, TNF-α, and IL-10, were measured. In the spleen, Th1 cells and Treg cells were measured by FACS (Fluorescence-Activated Cell Sorting).

[2] = tested on: immunosuppressed animals induced by anticancer drug (cyclophosphamide); assay: Immunosuppressed animals induced by cyclophosphamide: cognitive improvement, hippocampus indicators; settings: cyclophosphamide (CP)-treated mice, 1×10^9 CFU/mouse orally once a day for 5 days; for IFN-γ/IL-10 / IL-10 / Interferon (IFN)-γ / TNF-a/IL-10 / TNF-α: hippocampus
Protocol: as §1
The Y-shaped maze measurement device is shaped like an alphabetical Y with three arms extending from it, each arm being 25 cm long, 14 cm high, 5 cm wide, and positioned at the same angle. At the end of one arm of the Y-shaped maze, the animal was placed with its head facing out and allowed to freely navigate the arm for 8 minutes. The animal's movements were recorded, and reported as arm entries when the animal entered the arm with its hind paw, and the animal's movement was represented by an alternation, which was defined as one alternation when the animal passed through the three arms in succession. The amount of spontaneous alternation behavior was expressed as a percentage between the actual number of alternations and the maximum possible number of alternations (i.e., the total number of […] minus 2).
The experiment was conducted in a box (40×40×40 cm) made so that the outside could not be seen from the inside. Two objects (A, A′) of the same shape and size were fixedly disposed in a box and the mouse was relocated to start from the center of the box. Then, the number of times the mouse made contact with the two objects was recorded for 10 minutes. After 24 hours, one of the two objects was replaced with a new object (A, B). Then, one original object and one new object were prepared, and the animal's exploration time was measured.
(§3) C57BL/6 male mice (5 weeks old, 19-21 g) were divided (6 mice in each group) and acclimatized to the laboratory for 1 week. To induce intestinal and brain diseases, the mice were administered with cyclophosphamide (CP, 150 mg/kg, dissolved in physiological saline) for 1 day, rested for 1 day, and then administered intraperitoneally the next day. Meanwhile, the normal group was administered intraperitoneally with 0.1 ml of physiological saline. […] The day following the conclusion of sample administration, the experimental animals were sacrificed, and samples from the brain hippocampus, colon, and spleen were collected. In the Hippocampus, inflammatory indicators, such as IFN-γ, TNF-α, and IL-10, were measured using ELISA. In the colon, intestinal length and inflammatory indicators, such as IFN-γ, TNF-α, and IL-10, were measured. In the spleen, Th1 cells and Treg cells were measured by FACS (Fluorescence-Activated Cell Sorting).

[3] = tested on: immunosuppressed animals induced by anticancer drug (cyclophosphamide); assay: Immunosuppressed animals induced by cyclophosphamide: improvement effect in spleen; settings: cyclophosphamide (CP)-treated mice, 1×10^9 CFU/mouse orally once a day for 5 days; for Foxp3 (fold change) / Tbet (fold change) / Tbet/Foxp3: spleen qPCR; for IFN-γ/IL-10 / IL-10 / Interferon (IFN)-γ / NK cell cytoxicity (%) / Phagocytosis (%) / TNF-a/IL-10 / TNF-α: spleen
Protocol: as §1, §2, §3

[4] = tested on: animals with antibiotic-induced gut microbiota imbalance; assay: Animals with antibiotic (ampicillin)-induced gut microbiota imbalance: improvement effect in spleen; settings: ampicillin (AP)-treated mice, 1×10^9 CFU/mouse orally once a day for 5 days; for Foxp3 (fold change) / Tbet (fold change) / Tbet/Foxp3: spleen qPCR; for IFN-γ/IL-10 / IL-10 / Interferon (IFN)-γ / NK cell cytoxicity (%) / Phagocytosis (%) / TNF-a/IL-10 / TNF-α: spleen
Protocol: as §1, §2
C57BL/6 male mice (5 weeks old, 19-21 g) were divided (6 mice in each group) and acclimatized to the laboratory for 1 week. To induce intestinal and brain diseases, the mice were orally administered with ampicillin (AP, 100 mg/kg, dissolved in physiological saline) for 3 days. Meanwhile, the normal group was orally administered with 0.1 ml of physiological saline. […] The day following the conclusion of sample administration, the experimental animals were sacrificed, and samples from the brain hippocampus, colon, and spleen were collected. In the Hippocampus, inflammatory indicators, such as IFN-γ, TNF-α, and IL-10, were measured using ELISA. In the colon, intestinal length and inflammatory indicators, such as IFN-γ, TNF-α, and IL-10, were measured. In the spleen, Th1 cells and Treg cells were measured by FACS (Fluorescence-Activated Cell Sorting), and in feces, endotoxin (LPS) and gut microbial communities were measured.

| Substance | Foxp3 (fold change) [1] | Tbet (fold change) [1] | Tbet/Foxp3 [1] | IFN-γ/IL-10 [1] | IL-10 [1] | Interferon (IFN)-γ [1] | NK cell cytoxicity (%) [1] | Phagocytosis (%) [1] | TNF-a/IL-10 [1] | TNF-α [1] | Exoporation (%) (in NOR task) [2] | Spontaneous alteration (%) (in Y-maze task) [2] | IFN-γ/IL-10 [2] | IL-10 [2] | Interferon (IFN)-γ [2] | TNF-a/IL-10 [2] | TNF-α [2] | Foxp3 (fold change) [3] | Tbet (fold change) [3] | Tbet/Foxp3 [3] | other results |
| --- | --- | --- | --- | --- | --- | --- | --- | --- | --- | --- | --- | --- | --- | --- | --- | --- | --- | --- | --- | --- | --- |
| Bifidobacterium longum NK219 | 1.05 fold change | 1.80 fold change | 1.86 | 1.35 | 9.29 pg/mg | 12.56 pg/mg | 8.52% | 64.57% | 0.38 | 3.49 pg/mg | 78.34% | 71.26% | 0.44 | 53.74 pg/mg | 23.48 pg/mg | 0.20 | 10.91 pg/mg | 0.36 fold change | 0.95 fold change | 2.49 | IFN-γ/IL-10 [3]: 2.11; IL-10 [3]: 2.90 pg/mg; Interferon (IFN)-γ [3]: 5.56 pg/mg; NK cell cytoxicity (%) [3]: 8.90%; Phagocytosis (%) [3]: 50.36%; TNF-a/IL-10 [3]: 0.87; TNF-α [3]: 2.45 pg/mg; Foxp3 (fold change) [4]: 1.66 fold change; Tbet (fold change) [4]: 1.03 fold change; Tbet/Foxp3 [4]: 0.74; IFN-γ/IL-10 [4]: 0.81; IL-10 [4]: 11.35 pg/mg; Interferon (IFN)-γ [4]: 9.12 pg/mg; NK cell cytoxicity (%) [4]: 6.47%; Phagocytosis (%) [4]: 69.91%; TNF-a/IL-10 [4]: 0.40; TNF-α [4]: 4.32 pg/mg |
| Lactobacillus rhamnosus NK210 | 1.05 fold change | 1.41 fold change | 1.45 | 1.38 | 9.45 pg/mg | 13.02 pg/mg | 6.65% | 50.03% | 0.37 | 3.48 pg/mg | 78.71% | 70.94% | 0.59 | 43.29 pg/mg | 25.30 pg/mg | 0.24 | 10.44 pg/mg | 0.37 fold change | 0.75 fold change | 2.05 | IFN-γ/IL-10 [3]: 2.31; IL-10 [3]: 3.31 pg/mg; Interferon (IFN)-γ [3]: 7.39 pg/mg; NK cell cytoxicity (%) [3]: 8.26%; Phagocytosis (%) [3]: 58.65%; TNF-a/IL-10 [3]: 1.04; TNF-α [3]: 3.20 pg/mg; Foxp3 (fold change) [4]: 0.69 fold change; Tbet (fold change) [4]: 1.07 fold change; Tbet/Foxp3 [4]: 1.66; IFN-γ/IL-10 [4]: 0.87; IL-10 [4]: 8.25 pg/mg; Interferon (IFN)-γ [4]: 7.03 pg/mg; NK cell cytoxicity (%) [4]: 7.34%; Phagocytosis (%) [4]: 74.02%; TNF-a/IL-10 [4]: 0.45; TNF-α [4]: 3.57 pg/mg |
